Data on 93 compounds can be found in PubChem BioAssay AID1259321 (Sanford-Burnham Center for Chemical Genomics, 2017).

Molecules are shown by their SMILES. The source made the active and inactive calls.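 The calls were made as follows: active = half-maximal concentration for changing protein binding to DNA, from the fitted dose curve, below 10 micromolar; inactive = the rest.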

The target in this test is Nuclear receptor subfamily 1 group D member 1 (Homo sapiens) (UniProt P20393). As to the kind of experiment: Rev-erbα–DNA interaction modulators – biochemical, FITC-DNA, fluorescence polarization, dose response (AID 1259321). To be noted: Rev-erb alpha-FITC-DNA binding. Background: Polarisation of emitted light reports the rotation of a fluorescent probe.
Sequence of Nuclear receptor subfamily 1 group D member 1 (Homo sapiens) (P20393 whole entry, looked up): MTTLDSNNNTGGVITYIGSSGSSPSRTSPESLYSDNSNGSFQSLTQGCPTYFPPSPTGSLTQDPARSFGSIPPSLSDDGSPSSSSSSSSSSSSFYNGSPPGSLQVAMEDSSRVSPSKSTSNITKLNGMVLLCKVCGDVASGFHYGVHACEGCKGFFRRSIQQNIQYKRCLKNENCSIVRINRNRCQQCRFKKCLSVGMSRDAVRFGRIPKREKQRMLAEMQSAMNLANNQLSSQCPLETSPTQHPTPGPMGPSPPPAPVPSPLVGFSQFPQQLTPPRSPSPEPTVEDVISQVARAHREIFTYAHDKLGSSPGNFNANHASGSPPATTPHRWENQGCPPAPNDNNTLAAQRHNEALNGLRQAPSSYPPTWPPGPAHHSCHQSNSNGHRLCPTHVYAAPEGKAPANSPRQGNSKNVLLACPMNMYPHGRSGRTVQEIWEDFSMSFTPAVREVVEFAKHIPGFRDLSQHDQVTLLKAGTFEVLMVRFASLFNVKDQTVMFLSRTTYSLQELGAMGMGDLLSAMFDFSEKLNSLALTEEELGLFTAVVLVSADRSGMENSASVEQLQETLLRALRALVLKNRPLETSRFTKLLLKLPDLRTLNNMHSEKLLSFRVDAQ
For orientation: IC50 means the point on the concentration scale where inhibition reaches its midpoint. For the compound `COc1ccc2nc(SCC(=O)NC3CCCC3)c(C)cc2c1`, the IC50 is 4.48 µM.

In the case of `CC(NC(=O)c1ccc(-c2cc(C(F)(F)F)ccc2Cl)o1)c1ccccc1` (stereo not drawn), the IC50 is > 40 µM (inactive).

Turning to `Cc1ccc(-n2c(N)c(C#N)c(-c3ccc(Cl)cc3)c(C#N)c2=O)cc1`, the IC50 is 4.59 µM.

As to `COc1cc(C(=O)Nc2nc(-c3cc(C)ccc3C)c(C)s2)ccc1OCC(=O)Nc1ccc(F)cc1`, the IC50 result is “inactive”.

For `N#Cc1c(N)nc(SCC(=O)C23CC4CC(CC(C4)C2)C3)c(C#N)c1-c1ccc(Cl)cc1`, the IC50 is > 40 µM (inactive).

Turning to `Cc1ccc2[nH]cc(S(=O)(=O)c3ccc(C)c(C)c3)c(=O)c2c1`, the IC50 is > 40 µM (inactive).

For `O=C(c1cc2cc(Cl)ccc2[nH]1)N1CCN(c2ccccn2)CC1`, the IC50 was > 40 µM (inactive).

Turning to `COc1ccc(C#Cc2ccc(C3=CC(=O)CC(C)(C)C3=O)cc2)cc1`, the 50% inhibitory concentration (IC50) is 0.472 µM.

Regarding `Cc1ccc(CSc2nc3ccncc3n2CC(=O)Nc2cc(C)cc(C)c2)cc1`, the IC50 was > 40 µM (inactive).

`CCSc1nnc(NC(=O)c2cc3c(s2)CCCC3)s1`: the IC50 is 1.58 µM.

In the case of `CCOc1ccc(CNC(=O)C2CCN(c3nnc(C)c4c(C)n(-c5ccc(C)cc5)nc34)CC2)cc1`, the IC50 entry is “inactive”.

Turning to `CC(C)(C#N)Cc1cc(CC(C)(C)C#N)cc(C(C)(C)C)c1`, the IC50 is 4.07 µM.

For `COc1ccc(-c2c(C#N)c(SCC(N)=O)nc3c2CCCC3)cc1`, the IC50 is 3.93 µM.

For the compound `N#Cc1c(N)nc(N2CCCC2)c(C#N)c1-c1ccc(Cl)cc1`, the IC50 was 4.99 µM.

With `Cn1cc(/C=C/c2cc[n+](C)cc2)c2cc(Cl)ccc21`, the IC50 was > 40 µM (inactive).

On to `C/C(=N\NC(=O)COc1cccc(C)c1)c1ccc2ccccc2c1O`, for which the IC50 is 7.63 µM.

Consider `CCN(CC)C(=O)CSc1nc(C)cc(-c2cccs2)c1C#N`, for which the IC50 is 5.91 µM.

For the compound `CC(=O)c1cc2c(cc1N/C(=N/S(=O)(=O)c1ccccc1)c1ccc(Cl)cc1)OCO2`, the IC50 entry was “inactive”.

Take `CN(C)c1ccc(/C=C/c2cc[n+](C)cc2)cc1`: the IC50 is 3.47 µM.

For `CCOc1ccc(C(=O)Nc2nc(C)c(C(=O)OC)s2)cc1`, the IC50 was 2.2 µM.

For `O=C(NCc1ccc2c(c1)OCO2)C1CCC(CNS(=O)(=O)c2cccc3nsnc23)CC1` (stereo not drawn), the IC50 is > 40 µM (inactive).

For the compound `COc1ccc(-c2nnc(NC(=O)C(C)C)s2)c(OC)c1`, the IC50 result was “inactive”.

Take `CCc1ccc(-c2nc(NC(=O)c3ccc(OCC(=O)Nc4ccc(F)cc4)c(OC)c3)sc2C)cc1`: the IC50 is 9.3 µM.

With `COc1ccc2nc(SCc3cccnc3)c(C#N)cc2c1`, the IC50 was 2.51 µM.

`CCn1c(=O)cc(SCC(=O)Nc2ccc(Cl)cc2)c2ccccc21`: the IC50 was 5.59 µM.

On to `Brc1ccc(Sc2cnc3ccccc3n2)cc1`, for which the IC50 entry was “inactive”.

Regarding `COc1ccc(NC(=O)NNC(=O)COc2ccc3cc(Br)ccc3c2)c(OC)c1`, the IC50 is > 40 µM (inactive).

In the case of `COc1cc2cc(C#N)c(SCC(=O)Nc3cc(C)on3)nc2cc1OC`, the IC50 result is “inactive”.

Turning to `COc1ccc(C(=O)Nc2nnc(Cc3cccs3)s2)cc1OC`, the IC50 result was “inactive”.

With `Fc1cccc(CSc2ncnc3c2oc2ccccc23)c1`, the IC50 is 2.38 µM.

On to `Clc1nc2c(-c3ccccc3)nnn2c2ccccc12`, for which the IC50 was > 40 µM (inactive).

In the case of `COc1ccc(Cn2ccc3ccc(-c4ccc5ccn(C(=O)c6ccccc6OC)c5c4)cc32)cc1`, the IC50 was > 40 µM (inactive).

In the case of `COC(=O)c1ccccc1-c1c2ccc(=N)cc-2oc2cc(N)ccc12`, the IC50 is > 40 µM (inactive).

On to `CCOC(=O)c1c(NC(=O)COC(=O)CCOc2ccccc2C)sc(C(=O)NC)c1C`, for which the IC50 is 0.831 µM.

On to `CC1=NCCN1S(=O)(=O)c1c(C(C)C)cc(C(C)C)cc1C(C)C`, for which the IC50 was > 40 µM (inactive).

`CCOc1ccc(CC(=O)Nc2sc(Cc3ccccc3)cc2C(N)=O)cc1OCC`: the IC50 was > 40 µM (inactive).

On to `Cc1ccc(-c2c(C#N)c(N)n(-c3ccc(Cl)cc3)c(=O)c2C#N)cc1`, for which the IC50 result is “inactive”.

On to `CCOC(=O)c1c(NC(=S)Nc2ccc(OC)cc2)sc2c1CCC2`, for which the IC50 is 5.93 µM.

As for `O=C(Nc1nc(-c2cccs2)c(-c2cccs2)s1)C1CCCC1`, the IC50 is 2.86 µM.

On to `Cn1c(SCC(=O)NCc2ccc3c(c2)OCO3)ncc(C(=O)Nc2ccc(F)cc2)c1=O`, for which the IC50 was 3.91 µM.

As for `CCC(C)OC(=O)c1cc(C)nc2c(Br)cc(Br)cc12` (stereo not drawn), the IC50 is 7.65 µM.

Turning to `Cc1ccccc1C(=O)N=c1ccn(-c2nc3ccccc3nc2NS(=O)(=O)c2ccc(F)cc2)cc1`, the IC50 was 5.69 µM.

As for `Brc1cc(Br)c2ncnc(N3CCCCC3)c2c1`, the IC50 is 0.989 µM.

Turning to `COc1cccc(C(=O)CSc2nnc(-c3cc(OC)cc(OC)c3)o2)c1`, the IC50 entry is “inactive”.

On to `O=C1/C(=C\c2cc(Cl)c(O)c(Cl)c2)SC(=S)N1Cc1ccccc1`, for which the IC50 was > 40 µM (inactive).

As for `CC(C)(C)c1nc(SCC(=O)Nc2ccc3c(c2)OCCO3)c2ccccc2n1`, the IC50 is 0.88 µM.

Consider `CCn1c(=NC(=O)c2ccc(N3C(=O)CCC3=O)cc2)sc2c(OC)ccc(OC)c21`, for which the IC50 is 2.63 µM.

Regarding `CCOC(=O)c1c(NC(=O)CSc2nc3ccccc3s2)sc(C(C)=O)c1C`, the IC50 entry is “inactive”.

Turning to `N#Cc1c(N)nc(SCC(=O)NCc2ccc3c(c2)OCO3)c(C#N)c1-c1cccs1`, the half-maximal inhibitory concentration (IC50) is 2.41 µM.

As to `CCn1c(SCC(=O)c2c[nH]c3ccccc23)nnc1-c1cccs1`, the IC50 is > 40 µM (inactive).

For `Cc1ccc(-c2csc3nc[nH]c(=S)c23)cc1C`, the IC50 is 2.1 µM.

For `Nc1ccc2nc3c(=O)n(CCc4ccccc4)c(=O)[nH]c3nc2c1`, the half-maximal inhibitory concentration (IC50) was 2.89 µM.

As for `CCCCN(C)C1=CC2=CC(=C(C#N)C#N)CCC2CC1` (stereo not drawn), the IC50 was > 40 µM (inactive).

In the case of `COc1ccccc1NC(=O)c1sc2nc(Cc3ccccc3)cc(C(F)(F)F)c2c1N`, the IC50 result is “inactive”.

In the case of `COc1ccc(/C=C2\SC(=O)N(CCC(=O)Nc3ccccc3)C2=O)cc1OC`, the IC50 entry was “inactive”.

In the case of `Cc1cc(C)c2cc(C#N)c(SCC(=O)NCC3CCCO3)nc2c1` (stereo not drawn), the IC50 is 3.95 µM.

As for `C=CCc1cccc(C2Nc3ccccc3C(=O)N2O)c1O` (stereo not drawn), the IC50 is 7.11 µM.

`CC(=O)c1ccc(NC(=O)COC(=O)c2ccccc2Sc2ccccc2C#N)cc1`: the IC50 is > 40 µM (inactive).

Turning to `CN(C)c1ccc(N=Nc2ccccc2C(=O)OCC(=O)N2CCCCCC2)cc1`, the IC50 entry was “inactive”.

As to `CCOc1ccccc1CNC(=O)C1CCN(c2nnc(C)c3c(C)n(-c4ccc(C)cc4)nc23)CC1`, the IC50 is > 40 µM (inactive).

For the compound `Cc1nn2c(N)c(C#N)cnc2c1-c1ccc(Cl)cc1`, the IC50 is 6.12 µM.

As to `CN1CCS/C1=C/C=C1\SC(=S)N(CC(=O)O)C1=O`, the IC50 was 1.12 µM.

Regarding `COc1ccccc1N1C(=O)c2cccc3c(N(C)CCO)ccc(c23)C1=O`, the IC50 was 8.2 µM.

On to `COCCn1c(=NC(=O)CCS(=O)(=O)c2ccccc2)sc2cc(C(=O)OC)ccc21`, for which the IC50 was > 40 µM (inactive).

For the compound `COc1ccc(CCNC(=O)CSc2nc(-c3ccc(OC)c(OC)c3)ccc2C#N)cc1`, the IC50 result was “inactive”.

In the case of `COc1ccc(C(=O)Nc2ccccc2C(=O)Nc2ccccc2)cc1`, the IC50 is 6.74 µM.

Regarding `COC(=O)Cn1c(=NC(=O)c2ccc(OC)c(OC)c2)sc2cc(OC)ccc21`, the IC50 is > 40 µM (inactive).

Consider `CN(CCC#N)c1ccc(/C=C(\C#N)c2ccccn2)cc1`, for which the IC50 was 5.63 µM.

Take `CCOC(=O)/C(C#N)=C/c1cc2ccccc2nc1N1CCCCC1`: the IC50 is > 40 µM (inactive).

For `COc1ccccc1CNc1ncnc2cc(Cl)ccc12`, the IC50 is 2.42 µM.

For `CN1C(=O)C(=Cc2ccc(N3CCCCCC3)o2)C(=O)N(C)C1=S`, the IC50 result was “inactive”.

For `CCOC(=O)N1CCN(c2ncnc3c2oc2nc(C(C)C)c4c(c23)CCC4)CC1`, the IC50 was 5.3 µM.

For `Nc1nc(-c2cccs2)c(-c2cccs2)s1`, the IC50 is 1.43 µM.

`Cc1ccc2cc(C#N)c(SCC(=O)N3CCCc4ccccc43)nc2c1`: the concentration for half-maximal inhibition (IC50) was 6.5 µM.

For the compound `CCN(CC)c1ccc2cc(C(=O)NCc3ccc(F)cc3)c(=N)oc2c1`, the IC50 entry is “inactive”.

Turning to `CCc1nnc(NS(=O)(=O)c2ccc(Nc3ccc([N+](=O)[O-])c4nonc34)cc2)s1`, the IC50 is 9.46 µM.

`COc1ccc2c(C)cc(SCC(=O)Nc3ncc(Cl)cc3Cl)nc2c1`: the IC50 was 7.03 µM.

In the case of `COc1ccc(C2C(C#N)=C(C)NC3=C2C(=O)c2ccccc23)cc1` (stereo not drawn), the IC50 result was “inactive”.

Consider `COc1cc(OC)c(N(C)S(=O)(=O)c2cccc(C(=O)OCc3c(C)noc3C)c2)cc1Cl`, for which the IC50 is 5.12 µM.

For `Nc1ccc2cc3ccc(N)cc3nc2c1`, the IC50 is > 40 µM (inactive).

In the case of `CCCn1c(N)c(C(=O)CSc2nc(C)nc3sc(C)c(C)c23)c(=O)[nH]c1=O`, the IC50 was > 40 µM (inactive).

Regarding `COc1ccc(C(=O)Cn2cnc3ccc(Cl)cc3c2=O)cc1F`, the IC50 is 5 µM.

As for `Cc1cccc2cc(C#N)c(SCC(=O)NCc3cccs3)nc12`, the IC50 was 9.79 µM.

With `COc1ccc(Sc2nc3ccccc3n3c(C(F)(F)F)nnc23)cc1`, the IC50 was 3.01 µM.

As for `COc1ccc(CNC(=O)CCCn2c(=S)[nH]c3cc4c(cc3c2=O)OCO4)cc1`, the IC50 was 6.11 µM.

Regarding `Cc1ccc(-n2c(SCC(=O)Nc3cccc(C)c3)nc3c(oc4ccccc43)c2=O)cc1`, the IC50 is 2.18 µM.

`COc1ccc2cc(OCC(=O)NNC(=O)Nc3ccc(F)cc3)ccc2c1`: the IC50 was > 40 µM (inactive).

As to `COc1ccc(C)cc1NC(=O)c1cc2c(=O)n3ccccc3nc2n1C`, the IC50 is 3.91 µM.

With `Cc1ccc(-c2nc3ccccc3s2)cc1NC(=O)c1cc(-n2cnnc2)ccc1Cl`, the IC50 entry is “inactive”.

`Cc1cc(C(F)(F)F)c2c(N)c(C(=O)Nc3cc(C)on3)sc2n1`: the IC50 result is “inactive”.

As to `c1ccc2nc(-c3ccc(N4CCOCC4)cc3)ccc2c1`, the IC50 is > 40 µM (inactive).

`Fc1cccc2sc(Nc3nc4c(F)cccc4s3)nc12`: the IC50 was 4.6 µM.

Take `COC(=O)c1cccc(Cn2ccc3ccc(-c4ccc5ccn(C(=O)c6ccccc6OC)c5c4)cc32)c1`: the IC50 is 0.91 µM.
